# Source: patent publication US10787426B2, “Method of treating autism spectrum disorders using piperazine-1-carboxamidine or pharmaceutically acceptable salt thereof” (NEUROVENTI, priority 2016, dated 2020)
# Key:
# Assay type in all cases: in vivo, Sprague-Dawley (SD) rats
# [1] = system: valproic acid-induced autism rat models; experiment: Social interaction test (three-compartment box, stranger vs empty cage); details: 6.25 mg/kg or more, intraperitoneal once a day, 10 minutes test, compared to solvent control (VPA), FIG. 2A
# Description: (§1) In particular, valproic acid was subcutaneously injected into female adult Sprague-Dawley (SD) rats on day 12 of gestation, at a dose of 450 mg/kg and in an administration amount of 10 ml/kg, and then the SD rats gave birth to babies. When the born babies were 21 days old, they were grouped according to body weight and selected as autism rat models. As a group administered a solvent, on day 12 of gestation, female adult SD rats were administered a saline solution instead of valproic acid, at the same dose and in the same administration amount.
# (§2) The autism rat models prepared according to Example <1-1> were intraperitoneally administered piperazine-1-carboxamidine 24 days after birth once a day at a predetermined time. At this time, piperazine-1-carboxamidine was administered at a dose of […], 12.5 mg/kg, 25 mg/kg, or 50 mg/kg, and in an amount of 10 ml/kg. The administration process was repeated until all the experiments were completed, and was performed 30 minutes before experiments, in the case of behavioral experiments.
# To verify an effect of piperazine-1-carboxamidine on treating autism spectrum disorder in valproic acid-induced autism rat models, changes in social interaction according to whether piperazine-1-carboxamidine was administered or not were examined (Crawley, Jacqueline N. Mental retardation and developmental disabilities research reviews 10.4 (2004): 248-258). […]
# [2] = system: valproic acid-induced autism rat models; experiment: Social preference test (familiar side vs novel side); details: 12.5 mg/kg or 25 mg/kg, intraperitoneal once a day, FIG. 2B
# Description: as §1, §2
# To further verify an effect of piperazine-1-carboxamidine on treating autism spectrum disorder in valproic acid-induced autism rat models, an experiment for confirming social preference was carried out.
# In particular, after social interest was confirmed in Example <2-1>, another identical type of rat were placed in the empty cage at one end of the box structure, and a social interaction experiment for the autism rat models as experimental groups was conducted for 10 minutes. The cage in which rat were placed in Example <2-1> was regarded as a familiar side, the cage in which new rat were placed was regarded as a novel side, and the degree of interest expressed by the autism rat models as experimental groups was confirmed using the EthoVision system by measuring residence time for each case. A significance test was performed using two-way ANOVA, followed by a Bonferroni's post hoc test.
# [3] = system: valproic acid-induced autism rat models; experiment: Repetitive behavior test (grooming time); details: 12.5 mg/kg or more, intraperitoneal once a day; grooming time over 10 minutes; compared to autism-induced solvent control; FIG. 3
# Description: as §1
# The autism rat models prepared according to Example <1-1> were intraperitoneally administered piperazine-1-carboxamidine 24 days after birth once a day at a predetermined time. […]
# To confirm an autism therapeutic effect of piperazine-1-carboxamidine in valproic acid-induced autism rat models based on these findings, a grooming level enhancement effect was evaluated in the autism rat models.
# In particular, the autism rat models of Example <1-2>, which were administered piperazine-1-carboxamidine and aged between 33 days and 38 days, were placed in a cage (42 cm×29 cm×19 cm) without straw litter and adapted thereto for 10 minutes. Thereafter, the grooming time of the autism rat models was measured for 10 minutes to confirm the degree of repetitive behavior. […]
# [4] = system: valproic acid-induced autism rat models; experiment: Open field test (hyperactivity and impulsive behavior); details: 25 or 50 mg/kg, intraperitoneal once a day, open field 10 minutes
# Description: as §1, §2
# To confirm an effect of piperazine-1-carboxamidine on treating autism spectrum disorder in autism rat models, general locomotor activity of the autism rat models was evaluated by an open field test for assaying enhancement and deterioration of motor functions, sedation, excitement, anxiety, depression, the degree of avoidance, and toxicity. […]
# [5] = system: valproic acid-induced autism rat models; experiment: Electroshock-induced seizure threshold (CC50); details: 25 mg/kg, intraperitoneal once a day; Litchfield-Wilcoxon method; versus valproic acid-exposed solvent control; FIG. 5
# Description: as §1, §2
# To confirm an effect of piperazine-1-carboxamidine on treating autism spectrum disorder in autism rat models, electroshock-induced seizure susceptibility was evaluated in autism rat models (Park, Hyung Geun, et al. European journal of pharmacology 574.2, 2007: 112-119; Browning, R. A., et al. Epilepsy research 6.1, 1990: 1-11). […]
# [6] = 10 minutes test, versus autism-induced solvent control
smiles,measurement,setting,value
N=C(N)N1CCNCC1 [piperazine-1-carboxamidine],"degree of interest in new rat (strangers), residence time",[1]; 30 minutes before test,significantly increased
same,"degree of interest in the new empty side, residence time",[1],decreased
same,"level of interest in the familiar side, residence time",[2]; [6],decreased
same,"level of interest in the novel side, residence time",[2]; [6],increased
same,social preference patterns,[2]; relative to normal controls,restored to levels similar to those of the normal controls
same,"degree of grooming (grooming time, repetitive behavior)",[3],decreased
same,emotional disturbance-related movement in the central region (ratio of moving distance in central region to total),[4]; FIG. 4B,reduced to levels of the normal controls
same,degree of hyperactivity (total moving distance),"[4]; versus autism-induced solvent control, FIG. 4A",significantly decreased
same,"CC50 (convulsive current 50, electroshock-induced seizure threshold)",[5],significantly increased
